Experimental findings from US20230144824A1, “1H-PYRAZOLO[4,3-d]PYRIMIDINE COMPOUNDS AS TOLL-LIKE RECEPTOR 7 (TLR7) AGONISTS” (BRISTOL-MYERS SQUIBB COMPANY, priority 2020, published 2023) are described below.

Experiment [1] concerns the target T1, human TLR7 (Homo sapiens, UniProt Q9NYK1).
T1 construct: host or cells: HEK-Blue TLR7 cells (engineered human embryonic kidney cells)
T1 sequence (Q9NYK1 27-1049): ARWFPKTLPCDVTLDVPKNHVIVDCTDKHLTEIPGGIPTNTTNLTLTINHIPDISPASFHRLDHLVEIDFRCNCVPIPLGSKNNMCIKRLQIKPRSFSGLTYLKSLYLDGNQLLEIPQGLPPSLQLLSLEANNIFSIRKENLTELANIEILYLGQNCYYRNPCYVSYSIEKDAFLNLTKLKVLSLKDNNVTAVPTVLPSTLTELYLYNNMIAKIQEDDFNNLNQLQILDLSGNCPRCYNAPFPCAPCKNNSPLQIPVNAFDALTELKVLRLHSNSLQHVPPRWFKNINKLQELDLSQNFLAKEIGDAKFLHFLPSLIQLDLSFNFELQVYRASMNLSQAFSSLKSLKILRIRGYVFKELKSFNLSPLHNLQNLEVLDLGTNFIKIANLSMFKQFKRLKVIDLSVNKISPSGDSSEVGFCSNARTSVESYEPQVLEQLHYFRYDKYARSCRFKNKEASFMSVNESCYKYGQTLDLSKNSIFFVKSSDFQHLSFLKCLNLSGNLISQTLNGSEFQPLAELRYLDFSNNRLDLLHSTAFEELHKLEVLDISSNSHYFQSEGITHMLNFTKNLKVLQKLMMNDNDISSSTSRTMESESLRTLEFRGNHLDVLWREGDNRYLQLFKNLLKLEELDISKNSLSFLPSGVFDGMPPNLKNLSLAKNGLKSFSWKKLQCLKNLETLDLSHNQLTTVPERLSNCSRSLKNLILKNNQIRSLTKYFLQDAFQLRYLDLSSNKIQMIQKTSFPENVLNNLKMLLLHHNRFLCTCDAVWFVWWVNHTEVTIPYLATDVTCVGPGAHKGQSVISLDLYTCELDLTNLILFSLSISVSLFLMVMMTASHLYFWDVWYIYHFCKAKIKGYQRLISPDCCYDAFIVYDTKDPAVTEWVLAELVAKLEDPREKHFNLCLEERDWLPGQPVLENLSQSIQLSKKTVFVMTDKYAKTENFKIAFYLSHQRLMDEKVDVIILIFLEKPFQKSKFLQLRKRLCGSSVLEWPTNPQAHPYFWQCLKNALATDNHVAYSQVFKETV
Description: Human TLR7 agonist activity assay (HEK-Blue TLR7 SEAP reporter). Particulars: HEK-Blue TLR7 cells, 18 h treatment, average where assay performed multiple times, read-out: hTLR7 Agonism EC50. It is filed as cell-based. In short, it runs like this:
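HEK-Blue TLR7 cells (15,000/well) treated with compound for 18 h at 37 °C, 5% CO2. Secreted SEAP measured with Quanti-Blue, 30 min, OD 620 nm. EC50 taken as concentration giving half-maximal response between baseline and maximum.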

The test system of experiment [2] is CD69. Kind of experiment: Induction of CD69 in human whole blood. It is filed as cell-based. Particulars: 100% set to 1 uM of resiquimod, average where assay performed multiple times, read-out: hWB CD69 EC50. In short, it runs like this: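 Heparinized human whole blood treated with TLR7 agonist at final 1 uM and incubated 17 h at 37° C. CD69 surface staining alongside CD14 and CD19, then fix/lysis and flow cytometry on iQuePlus. Curves fitted with 1 uM resiquimod set as 100%.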

SMILES strings stand for the structures. Where two headings read alike, the source gives them in different places.

Consider `CCC[C@@H](CCO)Nc1nc(N)nc2cnn(Cc3ccc(C4CN(C(C)C)CCN4)cc3OC)c12` (stereo partly drawn) [Compound 182, (3S)-3-{[5-amino-1-({2-methoxy-4-[4-(propan-2-yl)piperazin-2-yl]phenyl}methyl)-1H-pyrazolo[4,3-d]pyrimidin-7-yl]amino}hexan-1-ol], for which the EC50 turned out to be 6.8 nM in experiment [1] and 0.28 nM in experiment [2] (Homo sapiens, 17 h).
Regarding `CCC[C@@H](CCO)Nc1nc(N)nc2cnn(Cc3ncc(C4CCCCN4)cc3OC)c12` (stereo partly drawn) [Compound 179, (3S)-3-[(5-amino-1-{[3-methoxy-5-(piperidin-2-yl)pyridin-2-yl]methyl}-1H-pyrazolo[4,3-d]pyrimidin-7-yl)amino]hexan-1-ol], the EC50 in experiment [1] turned out to be 235 nM; in experiment [2] (Homo sapiens, 17 h), 2.8 nM.
The like results for `CCCCNc1nc(N)nc2cnn(Cc3ncc(C4CCN(S(C)(=O)=O)CC4)cc3OC)c12` [Compound 103, N7-butyl-1-{[5-(1-methanesulfonylpiperidin-4-yl)-3-methoxypyridin-2-yl]methyl}-1H-pyrazolo[4,3-d]pyrimidine-5,7-diamine] were, in that order, 204 nM and 562 nM.
The like results for `COc1cc(C2CCN(C(C)C)CC2)cnc1Cn1ncc2nc(N)nc(NCc3cc(C)on3)c21` [Compound 142, 1-({3-methoxy-5-[1-(propan-2-yl)piperidin-4-yl]pyridin-2-yl}methyl)-N7-[(5-methyl-1,2-oxazol-3-yl)methyl]-1H-pyrazolo[4,3-d]pyrimidine-5,7-diamine] were, in that order, 43.3 nM and 5.6 nM.
In the case of `CCC[C@@H](CCO)Nc1nc(N)nc2cnn(Cc3ncc(C4CCN(C5CN(C)C5)CC4)cc3OC)c12` [Compound 138, (3S)-3-{[5-amino-1-({3-methoxy-5-[1-(1-methylazetidin-3-yl)piperidin-4-yl]pyridin-2-yl}methyl)-1H-pyrazolo[4,3-d]pyrimidin-7-yl]amino}hexan-1-ol], the EC50 in experiment [1] is 26.7 nM; in experiment [2] (Homo sapiens, 17 h), 5.6 nM.
On the same counts, the results for `COc1cc(C2CCN(C3CNC3)CC2)cnc1Cn1ncc2nc(N)nc(NCc3cc(C)on3)c21` [Compound 143, 1-({5-[1-(azetidin-3-yl)piperidin-4-yl]-3-methoxypyridin-2-yl}methyl)-N7-[(5-methyl-1,2-oxazol-3-yl)methyl]-1H-pyrazolo[4,3-d]pyrimidine-5,7-diamine] are 295 nM and 265 nM.
The like results for `CCCCNc1nc(N)nc2cnn(Cc3ncc(C4CCN(C(=O)CCOC)CC4)cc3OC)c12` [Compound 104, 1-[4-(6-{[5-amino-7-(butylamino)-1H-pyrazolo[4,3-d]pyrimidin-1-yl]methyl}-5-methoxypyridin-3-yl)piperidin-1-yl]-3-methoxypropan-1-one] were, in that order, 445 nM and 213 nM.
The like results for `CCC[C@@H](CCO)Nc1nc(N)nc2cnn(Cc3ncc(C4CCN(C5COC5)CC4)cc3OC)c12` [Compound 133, (3S)-3-{[5-amino-1-({3-methoxy-5-[1-(oxetan-3-yl)piperidin-4-yl]pyridin-2-yl}methyl)-1H-pyrazolo[4,3-d]pyrimidin-7-yl]amino}hexan-1-ol] were, in that order, 7.6 nM and 5.4 nM.
With `CCC[C@@H](CCO)Nc1nc(N)nc2cnn(Cc3nnc(C4CCN(C(C)C)CC4)cc3OC)c12` [Compound 177, (3S)-3-{[5-amino-1-({4-methoxy-6-[1-(propan-2-yl)piperidin-4-yl]pyridazin-3-yl}methyl)-1H-pyrazolo[4,3-d]pyrimidin-7-yl]amino}hexan-1-ol], the EC50 is 579 nM in experiment [1] and 9.9 nM in experiment [2] (Homo sapiens, 17 h).
As to `CCC[C@@H](CCO)Nc1nc(N)nc2cnn(Cc3ccc(C4CN(C(C)C)CCN4)cc3OC)c12` (stereo partly drawn) [Compound 184, (3S)-3-{[5-amino-1-({2-methoxy-4-[4-(propan-2-yl)piperazin-2-yl]phenyl}methyl)-1H-pyrazolo[4,3-d]pyrimidin-7-yl]amino}hexan-1-ol], the values for the EC50 in experiment [1] and in experiment [2] (17 hrs) were 6.5 nM and 0.15 nM, respectively.
As to `CCCCNc1nc(N)nc2c(C)nn(Cc3ncc(C4CCN(C(C)C)CC4)cc3OC)c12` [Compound 122, N7-butyl-1-({3-methoxy-5-[1-(propan-2-yl)piperidin-4-yl]pyridin-2-yl}methyl)-3-methyl-1H-pyrazolo[4,3-d]pyrimidine-5,7-diamine], the EC50 worked out at 193 nM in experiment [1] and 18.7 nM in experiment [2] (Homo sapiens, 17 h).
In the case of `CCCCNc1nc(N)nc2c(C)nn(Cc3ncc(C4CCN(C)CC4)cc3OC)c12` [Compound 123, N7-butyl-1-{[3-methoxy-5-(1-methylpiperidin-4-yl)pyridin-2-yl]methyl}-3-methyl-1H-pyrazolo[4,3-d]pyrimidine-5,7-diamine], the EC50 in experiment [1] was found to be 491 nM; in experiment [2] (Homo sapiens, 17 h) it was 40.2 nM.
On the same counts, the results for `CCC[C@@H](CCO)Nc1nc(N)nc2cnn(Cc3ncc(C4CCCCCN4)cc3OC)c12` (mixture of isomers) [Compound 183, (3S)-3-[(5-amino-1-{[5-(azepan-2-yl)-3-methoxypyridin-2-yl]methyl}-1H-pyrazolo[4,3-d]pyrimidin-7-yl)amino]hexan-1-ol] are 89.9 nM and 2.8 nM.
As to `CCCCNc1nc(N)nc2cnn(Cc3ncc(C4CC(C)(C)NC(C)(C)C4)cc3OC)c12` [Compound 170, N7-butyl-1-{[3-methoxy-5-(2,2,6,6-tetramethylpiperidin-4-yl)pyridin-2-yl]methyl}-1H-pyrazolo[4,3-d]pyrimidine-5,7-diamine], the EC50 stood at 209 nM in experiment [1] and 42.6 nM in experiment [2] (Homo sapiens, 17 h).
The like results for `CCC[C@@H](CCO)Nc1nc(N)nc2cnn(Cc3cnc(C4CCN(CCO)CC4)cc3OC)c12` [Compound 173, (3S)-3-{[5-amino-1-({6-[1-(2-hydroxyethyl)piperidin-4-yl]-4-methoxypyridin-3-yl}methyl)-1H-pyrazolo[4,3-d]pyrimidin-7-yl]amino}hexan-1-ol] were, in that order, 89.9 nM and 4.8 nM.
On the same counts, the results for `CCCCNc1nc(N)nc2cnn(Cc3ncc(C4CCN(C5CNC5)CC4)cc3OC)c12` [Compound 115, 1-({5-[1-(azetidin-3-yl)piperidin-4-yl]-3-methoxypyridin-2-yl}methyl)-N7-butyl-1H-pyrazolo[4,3-d]pyrimidine-5,7-diamine] are 447 nM and 64.7 nM.
In the case of `CCC[C@@H](CCO)Nc1nc(N)nc2cnn(Cc3ncc(C4CCN(CCN(C)C)CC4)cc3OC)c12` [Compound 164, (3S)-3-({5-amino-1-[(5-{1-[2-(dimethylamino)ethyl]piperidin-4-yl}-3-methoxypyridin-2-yl)methyl]-1H-pyrazolo[4,3-d]pyrimidin-7-yl}amino)hexan-1-ol], the 50% effective concentration (EC50) in experiment [1] was 41 nM; in experiment [2] (Homo sapiens, 17 h) it was 3.9 nM.
On the same counts, the results for `CCCCNc1nc(N)nc2cnn(Cc3ncc(C4CCN(C)CC4)cc3OC)c12` [Compound 111, N7-butyl-1-{[3-methoxy-5-(1-methylpiperidin-4-yl)pyridin-2-yl]methyl}-1H-pyrazolo[4,3-d]pyrimidine-5,7-diamine] are 65.3 nM and 5.4 nM.
The like results for `CCCCNc1nc(N)nc2cnn(Cc3ncc(C4CCN(C(=O)CN5CC6(CN(C)C6)C5)CC4)cc3OC)c12` [Compound 117, 1-[4-(6-{[5-amino-7-(butylamino)-1H-pyrazolo[4,3-d]pyrimidin-1-yl]methyl}-5-methoxypyridin-3-yl)piperidin-1-yl]-2-{6-methyl-2,6-diazaspiro[3.3]heptan-2-yl}ethan-1-one] were, in that order, 856 nM and 313 nM.
